In brackets after ≈: the same amount, converted by molar mass.

The first data set concerns Bord. bronchiseptica BO9. The experiment in a line: MIC, veterinary bacteria. The data set is classed as cell-based. Conditions: Bordetella bronchiseptica, BO9.
The compound `COC(=O)CCNC(=O)C=C(C)CC1OCC(CC2OC2C(C)C(C)O)C(O)C1O` (stereo not drawn) [Example 10, 2-Methoxycarbonylethylamide of monic acid A] returned an MIC of 20 µg/mL (≈ 46.6 µM).

A further data set relates to Past. multocida PAI. Briefly: MIC, veterinary bacteria. Conditions: Pasteurella multocida. The data set is classed as cell-based.
`COC(=O)CCNC(=O)C=C(C)CC1OCC(CC2OC2C(C)C(C)O)C(O)C1O` (stereo not drawn) [Example 10, 2-Methoxycarbonylethylamide of monic acid A] showed an MIC of 0.625 µg/mL (≈ 1.46 µM).

Another data set relates to Past. haemolytica PA5. Briefly: MIC, veterinary bacteria. The data set is classed as cell-based. The conditions noted are these: Mannheimia haemolytica, PA5.
In the case of `COC(=O)CCNC(=O)C=C(C)CC1OCC(CC2OC2C(C)C(C)O)C(O)C1O` (stereo not drawn) [Example 10, 2-Methoxycarbonylethylamide of monic acid A], the MIC is 5 µg/mL (≈ 11.6 µM).

Another data set has as its system Staph. aureus B4. Briefly: MIC, veterinary bacteria. The data set is classed as cell-based. Conditions: Staphylococcus aureus, B4.
`COC(=O)CCNC(=O)C=C(C)CC1OCC(CC2OC2C(C)C(C)O)C(O)C1O` (stereo not drawn) [Example 10, 2-Methoxycarbonylethylamide of monic acid A] had an MIC of 80 µg/mL (≈ 186 µM).

The next data set relates to Strep. uberis SPU 1. The experiment in a line: MIC, veterinary bacteria. The data set is classed as cell-based. Conditions: Streptococcus uberis, SPU1.
In turn, `COC(=O)CCNC(=O)C=C(C)CC1OCC(CC2OC2C(C)C(C)O)C(O)C1O` (stereo not drawn) [Example 10, 2-Methoxycarbonylethylamide of monic acid A] returned an MIC of 2.5 µg/mL (≈ 5.82 µM).

Another data set deals with Strep. dysgalactiae SPD 1. The experiment in a line: MIC, veterinary bacteria. The data set is classed as cell-based. The conditions noted are these: Streptococcus dysgalactiae, SPD1; Strep. dysgalactiae SPD 1; read-out: M.I.C.
As to `COC(=O)CCNC(=O)C=C(C)CC1OCC(CC2OC2C(C)C(C)O)C(O)C1O` (stereo not drawn) [Example 10, 2-Methoxycarbonylethylamide of monic acid A], the MIC is 20 µg/mL (≈ 46.6 µM).

System in another data set: not listed separately
Briefly: Mouse blood levels. The data set is classed as in vivo, male albino mice, CS1 strain. Conditions: blood, sc, 5 minutes after dosing, 50 mg/kg subcutaneous, mean of 5 experiments, assay Neisseria catarrhalis, read-out: Concentration (blood level). On the procedure:
The blood levels of the 5-ethoxycarbonylpentyl amide of monic acid A were measured after subcutaneous dosing to male albino mice.
Species: Albino male mice 18-22 g CS1 strain.
Routes: Subcutaneous and oral.
Dose: 50 mg/kg. This compound was supplied as an oil. It was administered as a solution in 10% DMF v/v in PBS or water.
Assay: Neisseria catarrhalis, immediate assay of samples.
Take `C/C(=C\C(=O)OCCCCCCCCC(=O)O)C[C@@H]1OC[C@H](C[C@@H]2O[C@H]2[C@@H](C)[C@H](C)O)[C@@H](O)[C@H]1O` [Pseudomonic Acid, reference compound]: the concentration at 5 min turned out to be 8200 ng/mL.

Staying with this data set, now noted: blood, sc, 10 minutes after dosing, 50 mg/kg subcutaneous, mean of 5 experiments, assay Neisseria catarrhalis, read-out: Concentration (blood level).
In the case of `C/C(=C\C(=O)OCCCCCCCCC(=O)O)C[C@@H]1OC[C@H](C[C@@H]2O[C@H]2[C@@H](C)[C@H](C)O)[C@@H](O)[C@H]1O` [Pseudomonic Acid, reference compound], the concentration at 10 min was determined as 3700 ng/mL.

The same data set, now with this note: blood, sc, 20 minutes after dosing, 50 mg/kg subcutaneous, mean of 5 experiments, assay Neisseria catarrhalis, read-out: Concentration (blood level).
On to `C/C(=C\C(=O)OCCCCCCCCC(=O)O)C[C@@H]1OC[C@H](C[C@@H]2O[C@H]2[C@@H](C)[C@H](C)O)[C@@H](O)[C@H]1O` [Pseudomonic Acid, reference compound], for which the concentration at 20 min was 1100 ng/mL.

Staying with this data set, now noted: blood, sc, 30 minutes after dosing, 50 mg/kg subcutaneous, mean of 5 experiments, assay Neisseria catarrhalis, read-out: Concentration (blood level).
In the case of `C/C(=C\C(=O)OCCCCCCCCC(=O)O)C[C@@H]1OC[C@H](C[C@@H]2O[C@H]2[C@@H](C)[C@H](C)O)[C@@H](O)[C@H]1O` [Pseudomonic Acid, reference compound], the concentration at 0.5 h is 620 ng/mL.

Still in this data set, the particulars now being: blood, sc, 60 minutes after dosing, 50 mg/kg subcutaneous, mean of 5 experiments, assay Neisseria catarrhalis, read-out: Concentration (blood level).
As to `C/C(=C\C(=O)OCCCCCCCCC(=O)O)C[C@@H]1OC[C@H](C[C@@H]2O[C@H]2[C@@H](C)[C@H](C)O)[C@@H](O)[C@H]1O` [Pseudomonic Acid, reference compound], the concentration at 1 h is less than 500 ng/mL.

Still in this data set, the particulars now being: sc, 50 mg/kg subcutaneous, blood.
As for `C/C(=C\C(=O)OCCCCCCCCC(=O)O)C[C@@H]1OC[C@H](C[C@@H]2O[C@H]2[C@@H](C)[C@H](C)O)[C@@H](O)[C@H]1O` [Pseudomonic Acid, reference compound], the half-life came to 5 min.

Values taken from patent US4200635A, “Antibacterially active amides” (Beecham Group Limited, priority 1977, dated 1980).
